In patent US20110177136A1, “METHOD AND PRODUCT” (priority 2008, published 2011):
Converted amounts (≈) assume the structure as drawn.

How the values were obtained:
[1] = 24 h
physchem = settings: 37 °C, water, thermodynamic from solid
[2] = In vitro dissolution test in simulated gastric fluid (USP 24 type II apparatus); assay type: physicochemical; settings: 900 ml SGF pH 2, 37±0.5° C., 100 rpm, equivalent to 200 mg carbamazepine
Method: SGF was prepared with 2 g/L NaCl and 1 g/L Triton X-100, and acidified to pH 2 with HCl. Bath temperature was maintained at 37±0.5° C. and stirred at 100 rpm. Samples were collected at 15, 30 and 60 min and replaced with a fresh dissolution medium. After centrifugation, filtration through 0.45 μm membrane filter and suitable dilution, concentration of carbamazepine was determined spectrophotometrically at 320 nm.

- Saturation Solubility [1]: 290 µg/mL
- solubility at 24 h (physchem): 290 µg/mL (≈ 1230 µM)
- Percentage of Carbamazepine released ([2]; 15 min, listed as pure carbamazepine): 43.48%
- Percentage of Carbamazepine released ([2]; 15 min, listed as pure drug): 43.48 ± 2.23%
- Percentage of Carbamazepine released ([2]; 30 min, listed as pure carbamazepine): 59.29%
- Percentage of Carbamazepine released ([2]; 30 min, listed as pure drug): 59.29 ± 2.21%
- Percentage of Carbamazepine released ([2]; 60 min, listed as Pure carbamazepine): 69.11%
- Percentage of Carbamazepine released ([2]; 60 min, listed as pure drug): 69.11 ± 2.24%
SMILES: NC(=O)N1c2ccccc2C=Cc2ccccc21 [Carbamazepine, carbamazepine]
